The supplement of paper PMC11061612

Legend:
AZD4320 = compound: CN(CC[C@H](CSC1=CC=CC=C1)NC2=C(C=C(C=C2)S(=O)(=O)NC(=O)C3=CC=C(C=C3)N4CCC(CC4)[C@H](C5=CC=CC=C5C6=CC=C(C=C6)Cl)O)S(=O)(=O)C(F)(F)F)CCO [AZD4320]; details: max 1 µM
In short: (§1)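 Cancer cell lines were dosed for 72 hours (final DMSO typically 0.2%) after 24 hours at 37°C and 5% CO2 in 1536-well plates containing 7.5 μl DMEM/F12 or RPMI with 10% FBS. Viability came from CellTiter-Glo 2.0 luminescence, scaled between blank-well and DMSO-well means, and dose responses were fitted to a two-parameter logistic curve with a non-linear mixed effects model. The single-agent IC50 was obtained from this fit.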

Venetoclax = compound: CC1(C)CCC(CN2CCN(c3ccc(C(=O)NS(=O)(=O)c4ccc(NCC5CCOCC5)c([N+](=O)[O-])c4)c(Oc4cnc5[nH]ccc5c4)c3)CC2)=C(c2ccc(Cl)cc2)C1 [Venetoclax]; details: max 1 µM
In short: as §1

Dasatinib = compound: CC1=C(C(=CC=C1)Cl)NC(=O)C2=CN=C(S2)NC3=CC(=NC(=N3)C)N4CCN(CC4)CCO [Dasatinib]; details: max 2 µM
In short: as §1

Taselisib = compound: Cc1nc(-c2cn3c(n2)-c2ccc(-c4cnn(C(C)(C)C(N)=O)c4)cc2OCC3)n(C(C)C)n1 [Taselisib]; details: max 10 µM
In short: as §1

Alisertib = compound: COc1cc(Nc2ncc3c(n2)-c2ccc(Cl)cc2C(c2c(F)cccc2OC)=NC3)ccc1C(=O)O [Alisertib]; details: max 10 µM
In short: as §1

Capivasertib = compound: C1CN(CCC1(C(=O)N[C@@H](CCO)C2=CC=C(C=C2)Cl)N)C3=NC=NC4=C3C=CN4 [Capivasertib]; details: max 10 µM
In short: as §1

Doxorubicin = compound: COc1cccc2c1C(=O)c1c(O)c3c(c(O)c1C2=O)C[C@@](O)(C(=O)CO)C[C@@H]3O[C@H]1C[C@H](N)[C@H](O)[C@H](C)O1 [Doxorubicin]; details: max 1 µM
In short: as §1

Savolitinib = compound: C[C@@H](c1ccc2nccn2c1)n1nnc2ncc(-c3cnn(C)c3)nc21 [Savolitinib]; details: max 1 µM
In short: as §1

Gefitinib = compound: COc1cc2ncnc(Nc3ccc(F)c(Cl)c3)c2cc1OCCCN1CCOCC1 [Gefitinib]; details: max 10 µM
In short: as §1

AZD8186 = compound: C[C@@H](Nc1cc(F)cc(F)c1)c1cc(C(=O)N(C)C)cc2c(=O)cc(N3CCOCC3)oc12 [AZD8186]; details: max 3 µM
In short: as §1

SG3199 = compound: CC1=CN2[C@@H](C1)C=NC3=CC(=C(C=C3C2=O)OC)OCCCCCOC4=C(C=C5C(=C4)N=C[C@@H]6CC(=CN6C5=O)C)OC [SG3199]; details: max 0.001 µM
In short: as §1

AZD6738 = compound: C[C@@H]1COCCN1C2=NC(=NC(=C2)C3(CC3)[S@](=N)(=O)C)C4=C5C=CNC5=NC=C4 [AZD6738]; details: max 10 µM
In short: as §1

Trametinib = compound: CC(=O)Nc1cccc(-n2c(=O)n(C3CC3)c(=O)c3c(Nc4ccc(I)cc4F)n(C)c(=O)c(C)c32)c1 [Trametinib]; details: max 1 µM
In short: as §1

AZD7648 = compound: Cc1cc2ncnn2cc1Nc1ncc2c(n1)n(C1CCOCC1)c(=O)n2C [AZD7648]; details: max 10 µM
In short: as §1

AZD5991 = compound: Cc1c2c(nn1C)CSCc1cc(n(C)n1)CSc1cc(c3ccccc3c1)OCCCc1c(C(=O)O)n(C)c3c-2c(Cl)ccc13 [AZD5991]; details: max 1 µM
In short: as §1

AZD1390 = compound: CC(C)n1c(=O)n(C)c2cnc3cc(F)c(-c4ccc(OCCCN5CCCCC5)nc4)cc3c21 [AZD1390]; details: max 0.3 µM
In short: as §1

Crizotinib = compound: C[C@@H](Oc1cc(-c2cnn(C3CCNCC3)c2)cnc1N)c1c(Cl)ccc(F)c1Cl [Crizotinib]; details: max 10 µM
In short: as §1

AZD5153 = compound: COc1nnc2ccc(N3CCC(c4ccc(OCCN5CCN(C)C(=O)[C@H]5C)cc4)CC3)nn12 [AZD5153]; details: max 1 µM
In short: as §1

AZD1775 = compound: C=CCn1c(=O)c2cnc(Nc3ccc(N4CCN(C)CC4)cc3)nc2n1-c1cccc(C(C)(C)O)n1 [AZD1775]; details: max 3 µM
In short: as §1

Palbociclib = compound: CC(=O)c1c(C)c2cnc(Nc3ccc(N4CCNCC4)cn3)nc2n(C2CCCC2)c1=O [Palbociclib]; details: max 10 µM
In short: as §1

SN-38 = compound: CCc1c2c(nc3ccc(O)cc13)-c1cc3c(c(=O)n1C2)COC(=O)[C@]3(O)CC [SN-38]; details: max 0.3 µM
In short: as §1

Lapatinib = compound: CS(=O)(=O)CCNCc1ccc(-c2ccc3ncnc(Nc4ccc(OCc5cccc(F)c5)c(Cl)c4)c3c2)o1 [Lapatinib]; details: max 10 µM
In short: as §1

Prexasertib = compound: COc1cccc(OCCCN)c1-c1cc(Nc2cnc(C#N)cn2)n[nH]1 [Prexasertib]; details: max 1 µM
In short: as §1

Olaparib = compound: O=C(c1cc(Cc2n[nH]c(=O)c3ccccc23)ccc1F)N1CCN(C(=O)C2CC2)CC1 [Olaparib]; details: max 10 µM
In short: as §1

Selumetinib = compound: Cn1cnc2c(F)c(Nc3ccc(Br)cc3Cl)c(C(=O)NOCCO)cc21 [Selumetinib]; details: max 10 µM
In short: as §1

AZD2811 = compound: CCN(CCO)CCCOc1ccc2c(Nc3cc(CC(=O)Nc4cccc(F)c4)[nH]n3)ncnc2c1 [AZD2811]; details: max 1 µM
In short: as §1

AZD0156 = compound: CN(C)CCCOc1ccc(-c2ccc3ncc4c(c3c2)n(C2CCOCC2)c(=O)n4C)cn1 [AZD0156]; details: max 3 µM
In short: as §1

Row | Cell Line | IC50, cell viability 72 h (AZD4320) [nM] | IC50, cell viability 72 h (Venetoclax) [nM] | IC50, cell viability 72 h (Dasatinib) [nM] | IC50, cell viability 72 h (Taselisib) [nM] | IC50, cell viability 72 h (Alisertib) [nM] | IC50, cell viability 72 h (Capivasertib) [nM] | IC50, cell viability 72 h (Doxorubicin) [nM] | IC50, cell viability 72 h (Savolitinib) [nM] | IC50, cell viability 72 h (Gefitinib) [nM] | IC50, cell viability 72 h (AZD8186) [nM] | IC50, cell viability 72 h (SG3199) [nM] | IC50, cell viability 72 h (AZD6738) [nM] | IC50, cell viability 72 h (Trametinib) [nM] | IC50, cell viability 72 h (AZD7648) [nM] | IC50, cell viability 72 h (AZD5991) [nM] | IC50, cell viability 72 h (AZD1390) [nM] | IC50, cell viability 72 h (Crizotinib) [nM] | IC50, cell viability 72 h (AZD5153) [nM] | IC50, cell viability 72 h (AZD1775) [nM] | IC50, cell viability 72 h (Palbociclib) [nM] | IC50, cell viability 72 h (SN-38) [nM] | IC50, cell viability 72 h (Lapatinib) [nM] | IC50, cell viability 72 h (Prexasertib) [nM] | IC50, cell viability 72 h (Olaparib) [nM] | IC50, cell viability 72 h (Selumetinib) [nM] | IC50, cell viability 72 h (AZD2811) [nM] | IC50, cell viability 72 h (AZD0156) [nM]
1 | NCI-H1341 (Small Cell Lung Carcinoma) | 59.3 | > 1000 | > 2000 | 684 | 910 | 9050 | 587 | > 1000 | > 10000 | > 3000 | > 1 | 6030 | > 1000 | > 10000 | > 1000 | > 300 | > 10000 | 739 | 1240 | > 10000 | 13.8 | > 10000 | 47.1 | > 10000 | > 10000 | > 1000 | > 3000
2 | SAT (Head and Neck Carcinoma) | > 1000 | > 1000 | 204 | 160 | 2920 | > 10000 | > 1000 | > 1000 | 2610 | > 3000 | > 1 | > 10000 | 77.2 | > 10000 | > 1000 | > 300 | > 10000 | 155 | 2690 | > 10000 | > 300 | 2020 | 826 | > 10000 | 4690 | > 1000 | > 3000
3 | P30-OHK (B-Lymphoblastic Leukemia) | 173 | > 1000 | > 2000 | 6340 | 231 | > 10000 | 202 | > 1000 | > 10000 | > 3000 | > 1 | 3470 | > 1000 | > 10000 | 835 | > 300 | 2780 | 63.3 | 660 | > 10000 | 9.37 | > 10000 | 20.5 | > 10000 | > 10000 | 37.9 | > 3000
4 | MOLT-13 (T-Lymphoblastic Leukemia) | 33.8 | 416 | > 2000 | > 10000 | 177 | > 10000 | 467 | > 1000 | > 10000 | > 3000 | > 1 | 2370 | 459 | > 10000 | 52.8 | > 300 | 4260 | 35.7 | 440 | 5570 | 3.85 | 5860 | 16.5 | > 10000 | 5270 | 42.7 | > 3000
